Converted amounts (≈) assume the structure as drawn.

The values below come from ChEMBL document CHEMBL5380831, “Azolylpyrimidinediols as Novel Structural Scaffolds of DNA-Groove Binders against Intractable Acinetobacter baumannii” (J Med Chem, 2023).

Common to all, as to assay type: functional
In experiment [1] the test system is Staphylococcus aureus. Nature of the experiment: Antibacterial activity against Staphylococcus aureus ATCC 29213 assessed as bacterial growth inhibition incubated for 24 hrs by broth microdilution method.
The next experiment deals with Klebsiella pneumoniae. Nature of the experiment: Antibacterial activity against Klebsiella pneumoniae assessed as bacterial growth inhibition incubated for 24 hrs by broth microdilution method.
The test system of experiment [2] is Staphylococcus aureus. The experiment can be described thus: Antibacterial activity against Staphylococcus aureus assessed as bacterial growth inhibition incubated for 24 hrs by broth microdilution method.
Experiment [3] has as its system Staphylococcus aureus. Nature of the experiment: Antibacterial activity against Staphylococcus aureus ATCC 25923 assessed as bacterial growth inhibition incubated for 24 hrs by broth microdilution method.
Experiment [4] deals with Staphylococcus aureus. The experiment can be described thus: Antibacterial activity against methicillin-resistant Staphylococcus aureus assessed as bacterial growth inhibition incubated for 24 hrs by broth microdilution method.
Experiment [5] has as its system Escherichia coli. The experiment can be described thus: Antibacterial activity against Escherichia coli ATCC 25922 assessed as bacterial growth inhibition incubated for 24 hrs by broth microdilution method.
The subject of experiment [6] is Escherichia coli. The experiment can be described thus: Antibacterial activity against Escherichia coli assessed as bacterial growth inhibition incubated for 24 hrs by broth microdilution method.
For the next experiment, the system named is Acinetobacter baumannii. Nature of the experiment: Antibacterial activity against Acinetobacter baumannii assessed as bacterial growth inhibition incubated for 24 hrs by broth microdilution method.
The next experiment deals with Enterococcus faecalis. Nature of the experiment: Antibacterial activity against Enterococcus faecalis assessed as bacterial growth inhibition incubated for 24 hrs by broth microdilution method.
Experiment [7] has as its system Pseudomonas aeruginosa. Nature of the experiment: Antibacterial activity against Pseudomonas aeruginosa ATCC 27853 assessed as bacterial growth inhibition incubated for 24 hrs by broth microdilution method.
The subject of experiment [8] is Pseudomonas aeruginosa. Nature of the experiment: Antibacterial activity against Pseudomonas aeruginosa assessed as bacterial growth inhibition incubated for 24 hrs by broth microdilution method.

As to `Cc1cn(-c2nccc(N(CCO)CCO)n2)c(C)n1`, the MIC in the experiment on Staphylococcus aureus [1], in the experiment on Klebsiella pneumoniae, in the experiment on Staphylococcus aureus [2], with Staphylococcus aureus [3], in the experiment with Staphylococcus aureus [4] and in the experiment with Escherichia coli [5] was 924 µM (≈ 256 µg/mL) each time. In addition, the MIC worked out at 924 µM (≈ 256 µg/mL) in the experiment with Escherichia coli [6]; 924 µM (≈ 256 µg/mL) in the experiment on Acinetobacter baumannii; 58 µM (≈ 16.1 µg/mL) in the experiment on Enterococcus faecalis; 924 µM (≈ 256 µg/mL) in the experiment with Pseudomonas aeruginosa [7]; 462 µM (≈ 128 µg/mL) in the experiment on Pseudomonas aeruginosa [8].
As to `Cc1nccn1-c1ccnc(N(CCO)CCO)n1`, the MIC in the experiment on Staphylococcus aureus [1] stood at 1950 µM (≈ 512 µg/mL); in the experiment with Klebsiella pneumoniae, 973 µM (≈ 256 µg/mL); with Staphylococcus aureus [2], 973 µM (≈ 256 µg/mL); with Staphylococcus aureus [3], 973 µM (≈ 256 µg/mL); in the experiment on Staphylococcus aureus [4] it was 973 µM (≈ 256 µg/mL); in the experiment with Escherichia coli [5], 973 µM (≈ 256 µg/mL). Further, the MIC was 973 µM (≈ 256 µg/mL) with Escherichia coli [6]; 973 µM (≈ 256 µg/mL) in the experiment with Acinetobacter baumannii; 973 µM (≈ 256 µg/mL) in the experiment with Enterococcus faecalis; 973 µM (≈ 256 µg/mL) with Pseudomonas aeruginosa [7]; 486 µM (≈ 128 µg/mL) in the experiment with Pseudomonas aeruginosa [8].
On to `Cc1nccn1-c1nccc(N(CCO)CCO)n1`, for which the MIC in the experiment on Staphylococcus aureus [1] stood at 973 µM (≈ 256 µg/mL); in the experiment on Klebsiella pneumoniae, 973 µM (≈ 256 µg/mL); in the experiment on Staphylococcus aureus [2], 973 µM (≈ 256 µg/mL); in the experiment with Staphylococcus aureus [3], 973 µM (≈ 256 µg/mL); in the experiment with Staphylococcus aureus [4], 973 µM (≈ 256 µg/mL); in the experiment on Escherichia coli [5], 1950 µM (≈ 512 µg/mL). The MIC with Escherichia coli [6], in the experiment on Acinetobacter baumannii, with Enterococcus faecalis, in the experiment with Pseudomonas aeruginosa [7] and with Pseudomonas aeruginosa [8] was 973 µM (≈ 256 µg/mL) throughout.
Turning to `O=C1c2cccc3c(N4CCN(c5nccc(-n6cncn6)n5)CC4)ccc(c23)C(=O)N1CCO`, the MIC with Staphylococcus aureus [1] was 9 µM (≈ 4.23 µg/mL); in the experiment on Klebsiella pneumoniae it was 545 µM (≈ 256 µg/mL); in the experiment on Staphylococcus aureus [2], 545 µM (≈ 256 µg/mL); in the experiment with Staphylococcus aureus [3], 68 µM (≈ 32 µg/mL); in the experiment on Staphylococcus aureus [4], 545 µM (≈ 256 µg/mL); in the experiment with Escherichia coli [5], 545 µM (≈ 256 µg/mL). Further, the MIC in the experiment on Escherichia coli [6] is 545 µM (≈ 256 µg/mL); with Acinetobacter baumannii it was 272 µM (≈ 128 µg/mL); with Enterococcus faecalis it was 545 µM (≈ 256 µg/mL); in the experiment with Pseudomonas aeruginosa [7], 545 µM (≈ 256 µg/mL); with Pseudomonas aeruginosa [8] it was 545 µM (≈ 256 µg/mL).
Take `Cc1cn(-c2nccc(N(CCO)CCO)n2)cn1`: the MIC turned out to be 973 µM (≈ 256 µg/mL) with Staphylococcus aureus [1]; 973 µM (≈ 256 µg/mL) with Klebsiella pneumoniae; 973 µM (≈ 256 µg/mL) in the experiment on Staphylococcus aureus [2]; 1950 µM (≈ 512 µg/mL) with Staphylococcus aureus [3]; 973 µM (≈ 256 µg/mL) in the experiment on Staphylococcus aureus [4]; 1950 µM (≈ 512 µg/mL) in the experiment with Escherichia coli [5]. The MIC in the experiment on Escherichia coli [6] worked out at 973 µM (≈ 256 µg/mL); with Acinetobacter baumannii, 486 µM (≈ 128 µg/mL); with Enterococcus faecalis, 1950 µM (≈ 512 µg/mL); with Pseudomonas aeruginosa [7], 973 µM (≈ 256 µg/mL); with Pseudomonas aeruginosa [8], 973 µM (≈ 256 µg/mL).
Take `CC(C)N(c1nccc(-n2cncn2)n1)C(C)C`: the MIC was found to be 1040 µM (≈ 256 µg/mL) in the experiment on Staphylococcus aureus [1]; 1040 µM (≈ 256 µg/mL) in the experiment on Klebsiella pneumoniae; 1040 µM (≈ 256 µg/mL) in the experiment with Staphylococcus aureus [2]; 520 µM (≈ 128 µg/mL) with Staphylococcus aureus [3]; 520 µM (≈ 128 µg/mL) in the experiment on Staphylococcus aureus [4]; 1040 µM (≈ 256 µg/mL) with Escherichia coli [5]. For the same compound, the MIC turned out to be 1040 µM (≈ 256 µg/mL) with Escherichia coli [6]; 1040 µM (≈ 256 µg/mL) in the experiment on Acinetobacter baumannii; 1040 µM (≈ 256 µg/mL) in the experiment on Enterococcus faecalis; 520 µM (≈ 128 µg/mL) in the experiment with Pseudomonas aeruginosa [7]; 520 µM (≈ 128 µg/mL) in the experiment on Pseudomonas aeruginosa [8].
Turning to `OCCN(CCO)c1ccnc(-n2ccnc2-c2ccccc2)n1`, the MIC with Staphylococcus aureus [1] was found to be 787 µM (≈ 256 µg/mL); in the experiment with Klebsiella pneumoniae, 787 µM (≈ 256 µg/mL); in the experiment on Staphylococcus aureus [2], 787 µM (≈ 256 µg/mL); in the experiment on Staphylococcus aureus [3] it was 394 µM (≈ 128 µg/mL); in the experiment with Staphylococcus aureus [4], 1580 µM (≈ 512 µg/mL); in the experiment on Escherichia coli [5], 1580 µM (≈ 512 µg/mL). In addition, the MIC came to 787 µM (≈ 256 µg/mL) in the experiment with Escherichia coli [6]; 394 µM (≈ 128 µg/mL) with Acinetobacter baumannii; 787 µM (≈ 256 µg/mL) in the experiment on Enterococcus faecalis; 787 µM (≈ 256 µg/mL) in the experiment with Pseudomonas aeruginosa [7]; 197 µM (≈ 64.1 µg/mL) in the experiment with Pseudomonas aeruginosa [8].
In the case of `O=c1ccc2c(CN3CCN(c4nccc(-n5cncn5)n4)CC3)cc(O)cc2o1`, the MIC in the experiment on Staphylococcus aureus [1] was determined as 632 µM (≈ 256 µg/mL); in the experiment with Klebsiella pneumoniae it was 632 µM (≈ 256 µg/mL); with Staphylococcus aureus [2], 316 µM (≈ 128 µg/mL); in the experiment with Staphylococcus aureus [3] it was 316 µM (≈ 128 µg/mL); with Staphylococcus aureus [4], 316 µM (≈ 128 µg/mL); with Escherichia coli [5] it was 633 µM (≈ 257 µg/mL). The MIC with Escherichia coli [6] worked out at 632 µM (≈ 256 µg/mL); in the experiment on Acinetobacter baumannii, 158 µM (≈ 64.1 µg/mL); in the experiment with Enterococcus faecalis, 316 µM (≈ 128 µg/mL); in the experiment on Pseudomonas aeruginosa [7], 632 µM (≈ 256 µg/mL); in the experiment with Pseudomonas aeruginosa [8], 316 µM (≈ 128 µg/mL).
